Data on 17 molecules can be found in PubChem BioAssay (NCI).

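Briefly, cells in 96-well plates were exposed to five compound concentrations for 48 h, and endpoints were estimated by linear interpolation. At the TGI there is no net growth.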

Some test systems named below: EKVX NSCLC; SK-OV-3 ovarian; CCRF-CEM leukemia; OVCAR-4 ovarian; SN12C renal; SF-268 CNS; A498 renal; UACC-257 melanoma.
Common to all, as to experiment: growth of human tumour cells (NCI), 48 h

For `C#Cc1cccc(NC(=O)/C=C\C(=O)O)c1`, the TGI in the assay with EKVX NSCLC, in the assay with SK-OV-3 ovarian, in the assay with CCRF-CEM leukemia, with OVCAR-4 ovarian, in the assay on SN12C renal and in the assay with SF-268 CNS was above 100 µM each time. The TGI with A498 renal and in the assay with UACC-257 melanoma was above 100 µM in each case.
Take `Cc1ccc(-n2c3nc(=O)n(C)c(=O)c-3nc3ccccc32)c(C)c1`: the TGI in the assay with EKVX NSCLC is 21.6 µM; in the assay on SK-OV-3 ovarian, 75.8 µM; in the assay with CCRF-CEM leukemia it was 41.6 µM; in the assay with OVCAR-4 ovarian, 24.6 µM; in the assay with SN12C renal, 22.8 µM; in the assay on SF-268 CNS it was 34.8 µM. In the assay with UACC-257 melanoma, this molecule yielded a TGI of 12.6 µM.
As for `CS(=O)(=O)OCCN1CCN(C(=O)c2ccc(Cl)c3c(Nc4ccc(S(=O)(=O)N=C(N)N)cc4)c4ccccc4nc23)CC1`, the TGI in the assay with SK-OV-3 ovarian, in the assay on CCRF-CEM leukemia, in the assay with OVCAR-4 ovarian, with SN12C renal, with SF-268 CNS and in the assay with A498 renal was above 100 µM each time. The same molecule registered a TGI in the assay with UACC-257 melanoma above 100 µM.
Consider `CCOC1c2nc3ccccc3nc2-c2ccccc2N1C(C)=O` (stereo unspecified), for which the TGI with EKVX NSCLC, in the assay with SK-OV-3 ovarian, in the assay on CCRF-CEM leukemia, with OVCAR-4 ovarian, in the assay with SN12C renal and with A498 renal was above 100 µM each time. Further, in the assay with UACC-257 melanoma, the TGI is above 100 µM.
For the molecule `CC(C)(C)C1=NO[C@H]2[C@@H](NC(=O)c3ccccc3)CC[C@@H]12`, the TGI in the assay on SK-OV-3 ovarian, in the assay with CCRF-CEM leukemia, in the assay on OVCAR-4 ovarian, in the assay on SN12C renal, in the assay with SF-268 CNS and in the assay with UACC-257 melanoma was above 100 µM each time.
For `CC(C)(C)OC(=O)N[C@H]1CC(=O)c2ccccc2N(CC(=O)O)C1=O`, the TGI with EKVX NSCLC, in the assay on SK-OV-3 ovarian, with CCRF-CEM leukemia, in the assay with OVCAR-4 ovarian, in the assay on SN12C renal and in the assay with SF-268 CNS was above 100 µM throughout. The TGI in the assay on UACC-257 melanoma is above 100 µM.
Turning to `COC(=O)C1CCC(C)CC1=O` (stereo unspecified), the TGI in the assay on EKVX NSCLC, in the assay with SK-OV-3 ovarian, with CCRF-CEM leukemia, in the assay with OVCAR-4 ovarian, in the assay on SN12C renal and with SF-268 CNS was above 100 µM each time. Moreover, the TGI in the assay on A498 renal and with UACC-257 melanoma was above 100 µM in each case.
Regarding `O=C1OC(=O)c2c1nc1ccccc1c2-c1ccccc1`, the TGI in the assay with SK-OV-3 ovarian, in the assay on CCRF-CEM leukemia, with OVCAR-4 ovarian, with SN12C renal, in the assay on SF-268 CNS and in the assay on A498 renal was above 100 µM each time. In addition, the TGI in the assay on UACC-257 melanoma is above 100 µM.
For the molecule `CCc1c(OC(C)=O)c2c(NC3OC(COC(C)=O)C(OC(C)=O)C(OC(C)=O)C3OC(C)=O)nc(SC)nc2oc1=O` (stereo unspecified), the TGI with EKVX NSCLC, in the assay on SK-OV-3 ovarian, in the assay on CCRF-CEM leukemia, in the assay with OVCAR-4 ovarian, in the assay with SN12C renal and with A498 renal was above 100 µM throughout. The same molecule registered a TGI in the assay on UACC-257 melanoma above 100 µM.
As to `CCC(Oc1ccc(OC)c2c1C(=O)CCC2)C(=O)O` (stereo unspecified), the TGI in the assay on EKVX NSCLC, with SK-OV-3 ovarian, in the assay with CCRF-CEM leukemia, in the assay with OVCAR-4 ovarian, with SN12C renal and with SF-268 CNS was above 100 µM each time. The TGI in the assay with A498 renal and in the assay on UACC-257 melanoma was above 100 µM throughout.
As to `CNC(=O)OCc1nc(SSc2nc(COC(=O)NC)c(COC(=O)NC)n2C)n(C)c1COC(=O)NC`, the TGI with EKVX NSCLC, in the assay with SK-OV-3 ovarian, in the assay on CCRF-CEM leukemia, in the assay on OVCAR-4 ovarian, in the assay with SN12C renal and in the assay on SF-268 CNS was above 100 µM each time. Besides, the TGI with A498 renal and in the assay with UACC-257 melanoma was above 100 µM each time.
On to `O=C1C2C(C(=O)N1Cc1ccccc1)N(Cc1ccccc1)C(=O)N2Cc1ccccc1` (stereo unspecified), for which the TGI with EKVX NSCLC, in the assay on SK-OV-3 ovarian, in the assay with CCRF-CEM leukemia, in the assay on OVCAR-4 ovarian, in the assay with SN12C renal and with SF-268 CNS was above 100 µM in each case. The TGI in the assay on A498 renal and with UACC-257 melanoma was above 100 µM each time.
For `CCOC(=O)C1C(c2ccc(Br)cc2)N(Cc2ccccc2)C(c2ccc(Br)cc2)C(C(=O)OC)S1(=O)=O` (stereo unspecified), the TGI with EKVX NSCLC, with SK-OV-3 ovarian, in the assay with CCRF-CEM leukemia, in the assay on OVCAR-4 ovarian, with SN12C renal and in the assay on SF-268 CNS was above 100 µM throughout. Moreover, the TGI in the assay with UACC-257 melanoma was above 100 µM.
Consider `COS(=O)c1cc(Cl)cc(Cl)c1OC(=O)CSSCC(=O)Oc1c(Cl)cc(Cl)cc1S(=O)OC` (stereo unspecified), for which the TGI came to 41.9 µM in the assay with EKVX NSCLC; 80.7 µM in the assay on SK-OV-3 ovarian; 59.7 µM in the assay with CCRF-CEM leukemia; 51.6 µM in the assay with OVCAR-4 ovarian; 37.3 µM with SN12C renal; 44.9 µM with SF-268 CNS. Moreover, the TGI was 54.1 µM in the assay with A498 renal and 65.3 µM in the assay with UACC-257 melanoma.
As to `O=C([O-])c1ccc([I+]c2ccccc2)cc1`, the TGI in the assay on EKVX NSCLC, in the assay with SK-OV-3 ovarian, in the assay with CCRF-CEM leukemia, in the assay with OVCAR-4 ovarian, in the assay on SN12C renal and in the assay on SF-268 CNS was above 100 µM in each case. The TGI with A498 renal and with UACC-257 melanoma was above 100 µM in each case.
In the case of `O=C1C=CC2(CCC23C=CC(=O)O3)O1` (stereo unspecified), the TGI with EKVX NSCLC, in the assay on SK-OV-3 ovarian, with CCRF-CEM leukemia, in the assay with OVCAR-4 ovarian, in the assay with SN12C renal and with SF-268 CNS was above 100 µM in each case. For the same molecule, the TGI in the assay on A498 renal and in the assay on UACC-257 melanoma was above 100 µM throughout.
For `CCCCCCCCCCCCCCCC(=O)OCC1OC(n2cc(F)c(=O)[nH]c2=O)C(NC(=O)OCc2ccccc2)C(O)C1O` (stereo unspecified), the TGI in the assay with EKVX NSCLC was found to be 52.8 µM; in the assay with SK-OV-3 ovarian, 66 µM; with CCRF-CEM leukemia, 30 µM; in the assay on OVCAR-4 ovarian it was 42 µM; in the assay on SN12C renal, 38 µM; with SF-268 CNS, 54 µM. In the assay with A498 renal, this molecule displayed a TGI of 35.5 µM.
